The test system of data set [1] is human neuroblastoma cells (NPG.Luc cells). In words: NIR confocal microscopy of imaging agent uptake by neuroblastoma cells. The conditions noted are these: 50 μmolar, incubated overnight at 37° C., ex/em 765/810 nm. The format is cell-based. How it is done: Cell lines. Human neuroblastoma cancer cell lines NB1691.1uc and SYFY.luc were cultured in Dulbecco's Modified Eagle's Medium supplemented with high glucose and F12 nutrient (DMEM/F12, Invitrogen, Carlsbad, Calif.) with 10% fetal bovine serum (Hyclone, Logan, Utah) in a humidified incubator maintained at 37° C. with 5% CO2.
Confocal microscope imaging. Cells were harvested from culture and incubated overnight at 37° C. with W765-BG imaging agent or NIR dye at final concentrations of 50 μmolar. Cells were washed in PBS, then incubated for 15 min at 4° C. with Sytox green (Molecular Probes) in 95% ethanol to fix the cells and stain cell nuclei. Stained cells were then transferred to a slide and mounted for microscopic examination. Images were recorded using an Olympus confocal microscope (Model: Fluorview 1000, Olympus America, Center Valley, Pa., USA). The microscope was equipped with excitation (Ex) light source and emission (Em) filters to detect and separate W765-BG or NIR dye (ex/em 765/810 nm) and cell nuclei (ex/em 488/510 nm) signals. In the microscopic images, signal intensities were recorded from one slice of 23 cell z-stacks with 0.5 micrometers gaps. Sytox green and W765-BG or NIR dye signals were pseudo colored into green (emission at 510 nm) and red (emission at 810 nm), respectively.
Imaging of W765-BG in neuroblastoma cells. To evaluate W765-BG as a potential specific molecule, its ability to uptakes by neuroblastoma cells was examined in vitro by NIR confocal microscopy. NPG.Luc cells were treated with W765-BG or free dye overnight at 37° C., after which they were washed, fixed, and visualized by confocal microscopy.
In vitro cell uptake imaging agent. Imaging agent uptake by the cells was recorded by confocal microscopy. The images show cell morphology (FIG. 3A), cell nuclei (FIG. 3B), and W765-BG uptakes by cells (FIG. 3C). […] Those results were validated by non-overlaid NIR images (FIG. 3G and FIG. 3H).

Data set [2] concerns human neuroblastoma xenograft. As to the kind of experiment: Whole body and dissected organ imaging in the neuroblastoma xenograft mouse model (late stage tumor, imaging window). The class given is in vivo, mice. How it is done:
(§1) Tumor xenografts: Four- to six-week-old female nude mice (18-22 g) (Taconic, Hudson, N.Y.) were housed and fed with sterilized pellet chow and sterilized water. Animals were maintained in a pathogen-free mouse colony. Tumor cells near confluence were harvested by incubation with 0.05% trypsin-EDTA. Cells were pelleted by centrifugation at 130×g for 5 min and resuspended in sterile phosphate-buffered saline (PBS). Approximately 1 million cells were implanted subcutaneously into the hind leg region of the mice. A total of 15 mice was used in this study.
(§2) Animal imaging. Tumors were visualized by intraperitoneal injection of 3 mg of VivoGlo Luciferin (Promega, Madison Wis.) before the imaging session, and pseudo into cyan. Ten nanomoles of W765-BG and 3 nanomoles of the vascular agent RGD-Cy5.5 were injected i.v. into the tumor-bearing mice prior to the imaging study. The animals were imaged 1 to 9 days after the injection using the Kodak In-Vivo Multispectral System FX (Carestream Health Molecular Imaging, New Haven, Conn.). Vasculature images were recorded at wavelengths of ex/em 650/700 nm for RDG-Cy5.5 and pseudo colored into red. The W765-BG signal was recorded at wavelengths of ex/em 770/830 nm and pseudo colored into green. Tumor cells, vasculature, and W765-BG signals were precisely overlaid with anatomical X-ray images.
Late stage tumor, organ image and pathological analysis. Late stage tumor mass and organ imaging were performed after the injection of additional imaging agent (FIG. 5A-H). […] Gross necropsy confirmed the necrosis in the center of this tumor. H&E stain confirmed the identification of tumor (FIG. 5I), muscle (FIG. 5J), liver (FIG. 5K), kidney (FIG. 5L), and spleen (FIG. 5M) at pathological levels.

A further data set has as its system NGP.Luc xenograft. In words: In vivo NIR optical imaging of NGP.Luc tumor xenografts in mice. How it is done: as §1, §2
Imaging of W765-BG in human tumor xenografts in mice. […] Tumor-bearing mice received an intraperitoneal injection of Luciferin to visualize the tumor cells, followed by an intravenous injection of W765-BG from the tail vein. Whole body images were collected at 24 h intervals over the course of eight days. Tumors were visualized by white light, X-ray and luciferase imaging (FIG. 2). […] When merging the optical signal of W765-BG with luciferase and anatomic X-ray images (FIG. 2E-2F), their precise overlay confirms the specificity of W765-BG.
In contrast, the NGP.Luc tumor was rather diffuse without a clear margin in the early tumor growth phase (FIG. 4G). The tumor vasculature developed better than in the NB1691.Luc tumor. […] The diffused tumor growth pattern also limited the W765-BG imaging findings in this stage (FIG. 4I). Once again, the merged images show the location of the tumor cells and the vasculature status (FIG. 4J to FIG. 4L). One week later, the tumor cells became more concentrated in one location (FIG. 4M). The vasculature surrounding the tumor node was well formed (FIG. 4N) and the TBR of the vasculature agent increased to 1.90. […] The two imaging agents were distributed differently in the body (FIG. 4P). […] Merged X-ray and W765-BG images confirmed the tumor size, location and W765-BG signal intensity (FIG. 4Q).

For a further data set, the system named is NB1691.Luc xenograft. In words: In vivo NIR optical imaging of NB1691.Luc tumor xenografts in mice. As to conditions: 7 days post inoculation, 10 nmol W765-BG, 3 nmol RGD-Cy5.5 i.v. As for the experimental part: as §1
Animal imaging. Tumors were visualized by intraperitoneal injection of 3 mg of VivoGlo Luciferin (Promega, Madison Wis.) before the imaging session, and pseudo into cyan. Ten nanomoles of W765-BG and 3 nanomoles of the vascular agent RGD-Cy5.5 were injected i.v. into the tumor-bearing mice prior to the imaging study. […] Vasculature images were recorded at wavelengths of ex/em 650/700 nm for RDG-Cy5.5 and pseudo colored into red. The W765-BG signal was recorded at wavelengths of ex/em 770/830 nm and pseudo colored into green. […]
In vivo imaging. Luciferase positive tumor cell could be detected as early as 4 days after inoculation (data not show). Different tumor growth patterns were detected at 7 days post inoculation. […]

A further data set has as its system neuroblastomas. The conditions noted are these: Maris et al., 2007; cited from earlier work.

Consider 3 molecules from patent US20130224115A1, “NON-RADIOACTIVE AGENTS FOR NEUROBLASTOMA IMAGING” (Baylor College of Medicine, priority 2010, published 2013).

Where “and” joins values, the source holds several entries; their conditions need not be identical. Equal values may be shown once. Entries after “also recorded” stand apart in the source; their conditions may differ.

Consider `CC1(C)C(/C=C/C2=C(Oc3ccc(S(=O)(=O)O)cc3)C(=C/C=C3/N(CCCCCC(=O)NCC(=O)Nc4cccc(CNC(=N)N)c4)c4ccc(S(=O)(=O)O)cc4C3(C)C)/CCC2)=[N+](CCCCS(=O)(=O)O)c2ccc(S(=O)(=O)O)cc21` [Compound W765-BG, 2-(3-(IRdye800-Gly-amino)-benzyl)guanidine], for which, in data set [1], the “uptake of agent by neuroblastoma cells (NIR signal in cells, confocal microscopy)” value is listed as “detected inside the cells; also recorded: internalized into cells; also recorded: take up the W765-BG agent; also recorded: high uptake”. Further, the “whole body distribution of agent signal, late stage tumor” value in data set [2] (late stage tumor, after injection of additional imaging agent (FIG. 5B, 5C)) was “non-uniformly distributed in the tumor; also recorded: located only in the tumor region”. For the same molecule, in data set [2] (late stage tumor, dissected organ images (FIG. 5F, 5G)), the “distribution of agent in dissected organs” value was “in the tumor, liver and spleen”. Also, the “imaging window post injection” value in data set [2] (post injection) lay within 8 to 9 days. The “uptake by normal renal structures” value in data set [2] (retroperitoneal area, whole body images) is listed as “did not take up”. Also, the “persistence of tumor specific optical signals once absorbed” value in data set [2] (xenograft mouse model) is listed as “longer than one week”. For the same molecule, the “tumor to background ratio” value with NGP.Luc xenograft (24 hours after injection) is reported as 1.95; with NGP.Luc xenograft (48 hours after injection) it was 1.98; with NGP.Luc xenograft (192 hours after injection), 1.52. Moreover, the “whole body location of NIR signal” value with NGP.Luc xenograft (48 hours after administration (FIG. 2)) is given as “detected in tumor region only”. For the same molecule, the “tumor-to-background ratio (TBR)” value in the data set on NGP.Luc xenograft (NGP.Luc, early tumor growth phase (7 days post inoculation), 10 nmol W765-BG, 3 nmol RGD-Cy5.5 i.v.) is 1.08; in the data set on NGP.Luc xenograft (NGP.Luc, one week later than the early stage images), 2.90 and 2.8; in the data set with NB1691.Luc xenograft, 0.95. Moreover, the “whole body distribution of agent signal” value with NGP.Luc xenograft (NGP.Luc, one week later than the early stage images (FIG. 4P)) was “mainly in the tumor region”. Besides, the “time optical signals were retained in the tumor after injection” value in the data set on NGP.Luc xenograft (after which signal strength gradually diminished) was “about 48 hours”.

Consider `N=C(N)NCc1cccc([131I])c1` [MIBG, meta-iodobenzylguanidine], for which the “proportion of neuroblastomas in which the agent can be selectively concentrated” value in the data set on neuroblastomas is given as “more than 90%”.

With `CC1(C)C(/C=C/C2=C(Oc3ccc(S(=O)(=O)O)cc3)C(=C/C=C3/N(CCCCS(=O)(=O)O)c4ccc(S(=O)(=O)[O-])cc4C3(C)C)/CCC2)=[N+](CCCCCC(=O)O)c2ccc(S(=O)(=O)O)cc21` [free dye, IRDye800CW carboxylate, reference compound], the “uptake of agent by neuroblastoma cells (NIR signal in cells, confocal microscopy)” value in data set [1] and in data set [1] (listed as NIR dye) was “almost no detectable signal” each time.
